Assay results taken from US10662193B2, “Carbazole and carboline compounds for use in the diagnosis, treatment, alleviation or prevention of disorders associated with amyloid or amyloid-like proteins” (AC IMMUNE SA, priority 2014, dated 2020).

Test system: tau tangles/Aβ plaques on AD brain sections
Assay: Assay 1: direct staining of human Alzheimer's disease brain sections (fluorescence)
Assay type: binding
Parameters: key to Direct staining of tau tangles/Aβ plaques on AD brain sections at 100 μM / Direct staining of tau tangles on AD brain sections at 100 μM / Direct staining of Aβ plaques on AD brain sections at 100 μM / Direct staining of tau tangles on AD brain sections (footnote a: at 250 μM): − (No); +++ (strong); ++ (good); + (weak)
Description: Assay 1 (Fluorescence Based Assay):
Direct Binding of Compounds of this Invention to Human Alzheimer's Disease Brain Sections and/or Displacement of RefA and Compound B
Frozen sections with a thickness of […] from the amygdala of donors diagnosed with Braak stage V-VI Alzheimer's Disease (Braak, H.; Braak, E. Acta Neuropathol., 1991, 82, 239-259), were purchased from a commercial provider (Tissue Solutions) and kept at −80° C. until use.
Direct Staining of Human Alzheimer's Disease Brain Sections
Brain sections were encircled with pap pen liquid blocker to reduce the volume of solution for the different incubations. Sections were fixed for 15 min at 4° C. with 4% paraformaldehyde and washed three times 5 minutes with PBS at room temperature. […] To reduce the auto-fluorescence of the tissue, the sections were incubated in a solution of 0.1% Sudan Black (Sigma 199664) in 70% ethanol for 15 min at room temperature in the dark, washed four times for 5 minutes with PBS, and mounted using ProLong Gold Antifade reagent (Invitrogen P36930). Sections were then analyzed on the Nikon Eclipse Ti microscope to detect staining and imaged using Nikon DS-Fi2 camera and NIS-Element AR4.13.1 software.

[1] = 100 μM compound, human AD brain sections, fluorescence, cell does not say tangles or plaques

SMILES: Cn1c2c(c3ccc(Nc4ccc(F)c(F)c4)nc31)C(=O)N(CCCN)CC2 [213 Step F]
- Direct staining of tau tangles/Aβ plaques on AD brain sections at 100 μM (100 μM in 50% ethanol, 20 min, "(tangles)" beside the symbol = tangles stained): −

SMILES: COc1ccc(/C=C/c2ccc3nc(N4CCOCC4)sc3c2)cc1 [Compound B, reference compound]
- Direct staining of Aβ plaques on AD brain section (100 μM, FIG. 2): Direct staining of Aβ plaques

SMILES: Cn1c2ccncc2c2ccc(Nc3ccc(F)cc3)nc21 [Example 18]
- Direct staining of tau tangles/Aβ plaques on AD brain sections at 100 μM [1]: −

SMILES: Cn1c2ccncc2c2ccc(Nc3ccc(OCCF)cc3)nc21 [Example 20]
- Direct staining of Aβ plaques on AD brain sections at 100 μM (100 μM compound): + (plaques)

SMILES: Cn1c2ccncc2c2ccc(Nc3ccc(C#N)c(OCCF)c3)nc21 [Example 21]
- Direct staining of tau tangles/Aβ plaques on AD brain sections at 100 μM [1]: −

SMILES: Cn1c2ccncc2c2ccc(Nc3ccc(F)nc3)nc21 [Example 22]
- Direct staining of Aβ plaques on AD brain sections at 100 μM (100 μM compound): + (tangles) + (plaques
- Direct staining of tau tangles on AD brain sections at 100 μM (100 μM compound): + (tangles) + (plaques

SMILES: COc1cc(Nc2ccc3c4cnccc4n(C)c3n2)ccn1 [Example 24]
- Direct staining of Aβ plaques on AD brain sections at 100 μM (100 μM compound): + (plaques)

SMILES: Cn1c2ccncc2c2ccc(N3CCN(c4ccc(F)cc4)CC3)nc21 [Example 25]
- Direct staining of Aβ plaques on AD brain sections at 100 μM (100 μM compound): + (tangles) + (plaques)
- Direct staining of tau tangles on AD brain sections at 100 μM (100 μM compound): + (tangles) + (plaques)

SMILES: CN(CCF)c1cccc(Nc2ccc3c4cnccc4n(C)c3n2)c1 [Example 26]
- Direct staining of Aβ plaques on AD brain sections at 100 μM (100 μM compound): +++ (plaques)

SMILES: Fc1ccc(Nc2ccc3c(n2)[nH]c2ccncc23)cc1F [Example 27]
- Direct staining of Aβ plaques on AD brain sections at 100 μM (100 μM compound): + (tangles) + (plaques)
- Direct staining of tau tangles on AD brain sections at 100 μM (100 μM compound): + (tangles) + (plaques)

SMILES: Cn1c2ccncc2c2ccc(Nc3cncc(F)c3)nc21 [Example 29]
- Direct staining of tau tangles on AD brain sections at 100 μM (100 μM compound): + (tangles)

SMILES: COc1ccc(Nc2ccc3c4cnccc4n(C)c3n2)cc1F [Example 30]
- Direct staining of Aβ plaques on AD brain sections at 100 μM (100 μM compound): + (tangles) + (plaques)
- Direct staining of tau tangles on AD brain sections at 100 μM (100 μM compound): + (tangles) + (plaques)

SMILES: COc1cc(Nc2ccc3c4cnccc4n(C)c3n2)ccc1F [Example 31]
- Direct staining of Aβ plaques on AD brain sections at 100 μM (100 μM compound): + (tangles) + (plaques)
- Direct staining of tau tangles on AD brain sections at 100 μM (100 μM compound): + (tangles) + (plaques)

SMILES: Cn1c2ccncc2c2ccc(Nc3cccc(N4CC(F)C4)c3)nc21 [Example 32]
- Direct staining of Aβ plaques on AD brain sections at 100 μM (100 μM compound): + (tangles) + (plaques)
- Direct staining of tau tangles on AD brain sections at 100 μM (100 μM compound): + (tangles) + (plaques)

SMILES: Cn1c2ccncc2c2ccc(Nc3cccc(N4CCC(F)CC4)c3)nc21 [Example 33]
- Direct staining of Aβ plaques on AD brain sections at 100 μM (100 μM compound): + (tangles) + (plaques)
- Direct staining of tau tangles on AD brain sections at 100 μM (100 μM compound): + (tangles) + (plaques)

SMILES: Cc1ccc(Nc2ccc3c4cnccc4n(C)c3n2)cc1OCCF [Example 34]
- Direct staining of tau tangles on AD brain sections at 100 μM (100 μM compound): +++ (tangles)

SMILES: Cn1c2ccncc2c2ccc(Nc3cccc(C(F)F)c3)nc21 [Example 35]
- Direct staining of Aβ plaques on AD brain sections at 100 μM (100 μM compound): ++ (tangles) ++ (plaques)
- Direct staining of tau tangles on AD brain sections at 100 μM (100 μM compound): ++ (tangles) ++ (plaques)

SMILES: Cc1ccc(Nc2ccc3c4cnccc4n(C)c3n2)cc1OC(F)F [Example 36]
- Direct staining of Aβ plaques on AD brain sections at 100 μM (100 μM compound): + (plaques)

SMILES: Fc1ccc(Nc2ccc3c(c2)[nH]c2ccncc23)cc1F [Example 37]
- Direct staining of tau tangles on AD brain sections at 100 μM (100 μM compound): + (tangles)

SMILES: Cn1c2ccncc2c2ccc(Nc3ccc(F)c(F)c3)cc21 [Example 39]
- Direct staining of tau tangles on AD brain sections at 100 μM (100 μM compound): ++ (tangles)

SMILES: CN(C)c1cc(Nc2ccc3c4cnccc4n(C)c3n2)ccc1F [Example 41]
- Direct staining of tau tangles/Aβ plaques on AD brain sections at 100 μM [1]: −

SMILES: CNc1cc(Nc2ccc3c4cnccc4n(C)c3n2)ccc1F [Example 42]
- Direct staining of Aβ plaques on AD brain sections at 100 μM (100 μM compound): +++ (plaques)

SMILES: Cn1c2ccncc2c2ccc(Nc3cccc(SCCF)c3)nc21 [Example 43]
- Direct staining of Aβ plaques on AD brain sections at 100 μM (100 μM compound): + (tangles) + (plaques)
- Direct staining of tau tangles on AD brain sections at 100 μM (100 μM compound): + (tangles) + (plaques)

SMILES: Cc1nn(CCF)c(C)c1Nc1ccc2c3cnccc3n(C)c2n1 [Example 49]
- Direct staining of tau tangles on AD brain sections at 100 μM (100 μM compound): + (tangles)

SMILES: Cn1c2ccncc2c2ccc(Nc3ccc(OCCF)nc3)nc21 [Example 50]
- Direct staining of Aβ plaques on AD brain sections at 100 μM (100 μM compound): + (tangles) + (plaques)
- Direct staining of tau tangles on AD brain sections at 100 μM (100 μM compound): + (tangles) + (plaques)

SMILES: Cn1c2ccncc2c2ccc(Nc3cccc(OCCOCCF)n3)nc21 [Example 56]
- Direct staining of tau tangles on AD brain sections at 100 μM (100 μM compound): ++ (tangles)

SMILES: Cn1c2ccncc2c2ccc(Nc3ccc(F)c(OCCF)c3)nc21 [Example 57]
- Direct staining of tau tangles on AD brain sections at 100 μM (100 μM compound): ++ (tangles)

SMILES: Cn1c2ccncc2c2ccc(Nc3ccnc(OCCF)c3)nc21 [Example 58]
- Direct staining of Aβ plaques on AD brain sections at 100 μM (100 μM compound): +++ (plaques)

SMILES: Cn1c2ccncc2c2ccc(Nc3cccc(OCCOCCOCCF)n3)nc21 [Example 60]
- Direct staining of Aβ plaques on AD brain sections at 100 μM (100 μM compound): ++ (tangles) ++ (plaques)
- Direct staining of tau tangles on AD brain sections at 100 μM (100 μM compound): ++ (tangles) ++ (plaques)

SMILES: Cn1c2ccncc2c2ccc(Nc3ncc(C#N)s3)nc21 [Example 61]
- Direct staining of tau tangles/Aβ plaques on AD brain sections at 100 μM [1]: −

SMILES: Cn1c2ccncc2c2ccc(Nc3ccc(OCCF)cn3)nc21 [Example 62]
- Direct staining of tau tangles on AD brain sections at 100 μM (100 μM compound): + (tangles)

SMILES: Cn1c2ccncc2c2ccc(Nc3csc(OCCF)n3)nc21 [Example 69]
- Direct staining of tau tangles on AD brain sections at 100 μM (100 μM compound): ++ (tangles)

SMILES: Cn1c2ccncc2c2ccc(Nc3cccc(NCCF)c3)nc21 [Example 71]
- Direct staining of Aβ plaques on AD brain sections at 100 μM (100 μM compound): + (tangles) + (plaques)
- Direct staining of tau tangles on AD brain sections at 100 μM (100 μM compound): + (tangles) + (plaques)

SMILES: Cn1c2ccncc2c2ccc(Nc3ccc(NCCF)cn3)nc21 [Example 79]
- Direct staining of tau tangles/Aβ plaques on AD brain sections at 100 μM [1]: −

SMILES: CN1CCc2c(c3ccc(Nc4cccc(NCCF)n4)nc3n2C)C1=O [Example 81]
- Direct staining of tau tangles/Aβ plaques on AD brain sections at 100 μM [1]: −

SMILES: Cn1c2c(c3ccc(Nc4ccc(NCCF)cn4)nc31)C(=O)NCC2 [Example 82]
- Direct staining of tau tangles on AD brain sections at 100 μM (100 μM compound): + (tangles)

SMILES: CN1CCc2c(c3ccc(Nc4ccc(NCCF)cn4)nc3n2C)C1=O [Example 83]
- Direct staining of tau tangles on AD brain sections at 100 μM (100 μM compound): + (tangles)

SMILES: CN1CCc2c(c3ccc(Nc4cccc(NCCF)c4)nc3n2C)C1=O [Example 84]
- Direct staining of tau tangles/Aβ plaques on AD brain sections at 100 μM [1]: −

SMILES: Cn1c2ccncc2c2ccc(Nc3cncc(OCCCF)c3)nc21 [Example 97]
- Direct staining of tau tangles on AD brain sections at 100 μM (100 μM compound): +++ (tangles)

SMILES: Cn1c2ccncc2c2ccc(Nc3ccc(F)c([N+](=O)[O-])c3)nc21 [Example 98]
- Direct staining of tau tangles/Aβ plaques on AD brain sections at 100 μM [1]: −

SMILES: Cn1c2ccncc2c2ccc(Nc3ccc([N+](=O)[O-])c(F)c3)nc21 [Example 99]
- Direct staining of tau tangles/Aβ plaques on AD brain sections at 100 μM [1]: −

SMILES: Cn1c2ccncc2c2ccc(Nc3cc(CCF)ccn3)nc21 [Example 148]
- Direct staining of tau tangles on AD brain sections at 100 μM (100 μM compound): ++ (tangles)

SMILES: Cn1c2ccncc2c2ccc(Nc3cccc(CCF)n3)nc21 [Example 149]
- Direct staining of tau tangles on AD brain sections at 100 μM (100 μM compound): ++ (tangles)

SMILES: Cn1c2ccncc2c2ccc(N3CCC[C@H](F)C3)nc21 [Example 158]
- Direct staining of tau tangles on AD brain sections at 100 μM (100 μM compound): ++ (tangles)

SMILES: Cn1c2ccncc2c2ccc(N3CC[C@H](F)C3)nc21 [Example 160]
- Direct staining of tau tangles/Aβ plaques on AD brain sections at 100 μM [1]: −

SMILES: Cn1c2cccnc2c2ccc(Nc3cccc(OCCF)c3)nc21 [Example 163]
- Direct staining of tau tangles on AD brain sections at 100 μM (100 μM compound): ++ (tangles)

SMILES: FCCN(c1ccc(F)c(F)c1)c1ccc2c3cnccc3n(CCF)c2n1 [Example 164]
- Direct staining of Aβ plaques on AD brain sections at 100 μM (100 μM compound): + (plaques)

SMILES: OCCn1c2ccncc2c2ccc(Nc3cccc(OCCF)c3)nc21 [Example 165]
- Direct staining of tau tangles/Aβ plaques on AD brain sections at 100 μM [1]: −

SMILES: OCCn1c2ccncc2c2ccc(Nc3ccc(F)c(F)c3)nc21 [Example 166]
- Direct staining of tau tangles/Aβ plaques on AD brain sections at 100 μM [1]: −

SMILES: COCCOCCn1c2ccncc2c2ccc(Nc3cccc(OCCF)c3)nc21 [Example 167]
- Direct staining of tau tangles/Aβ plaques on AD brain sections at 100 μM [1]: −

SMILES: Cn1c2c(c3ccc(Nc4ccc(N5CCOCC5)cc4)nc31)C(=O)NCC2 [Example 173]
- Direct staining of tau tangles/Aβ plaques on AD brain sections at 100 μM [1]: −

SMILES: Cn1c2c(c3ccc(Nc4ccc(C#N)c(OCCF)c4)nc31)C(=O)NCC2 [Example 176]
- Direct staining of tau tangles/Aβ plaques on AD brain sections at 100 μM [1]: −

SMILES: Cn1c2c(c3ccc(Nc4ccc(OCCF)cc4)nc31)C(=O)NCC2 [Example 177]
- Direct staining of tau tangles/Aβ plaques on AD brain sections at 100 μM [1]: −
